{"source": "patent US20250275978A1", "about": "(Cardiff Oncology, Inc., priority 2024, published 2025)", "key": {"[1]": {"system": "RAS^WT CRC patient-derived xenograft (PDX) models", "experiment": "Example 1: antitumor activity in RAS^WT CRC PDX models, 18 days", "format": "in vivo, nude mice", "protocol": "Twenty RAS^WT CRC PDXs were selected and engrafted in nude mice. […] Tumor volume change from baseline (TVC) was calculated as 100%×(Vt−Vo)/Vo and tumor growth inhibition (TGI) as 100%×(TVCcontrol−TVCtreated)/TVCcontrol. Tumor regression was defined as TVCD18<0 and tumor stasis […]."}, "[2]": {"system": "RAS^WT colorectal cancer patient derived xenograft (PDX) models", "experiment": "Example 2: antitumor activity in RAS^WT CRC PDX models, 18-19 days", "format": "in vivo, mice", "protocol": "Tumor volumes (TV) were measured twice a week, and % tumor volume change (TVC) from baseline was calculated as follows: (TVi/TV0−1)×100. Tumor stasis defined as TVC between 0 and 20%, and tumor regression as TVC less than 0% at last measurement. Results are presented as mean±SEM."}, "panel of 63 kinases": {"system": "panel of 63 kinases", "conditions": "low or no activity; cited from earlier work"}, "[3]": {"system": "panel of 296 kinases, including other PLK members", "conditions": "cited from earlier work"}, "[4]": {"system": "cell lines, both from solid as well as hematologic tumors", "conditions": "large number of cell lines; cited from earlier work"}, "AML cell lines": {"system": "AML cell lines", "conditions": "cited from earlier work"}, "CYP1A2": {"target": "T1, CYP1A2 (Homo sapiens, UniProt P05177)", "T1 construct": "was investigated using human liver microsomes; from tissue; host or cells: human liver microsomes", "T1 sequence (P05177 1-516)": "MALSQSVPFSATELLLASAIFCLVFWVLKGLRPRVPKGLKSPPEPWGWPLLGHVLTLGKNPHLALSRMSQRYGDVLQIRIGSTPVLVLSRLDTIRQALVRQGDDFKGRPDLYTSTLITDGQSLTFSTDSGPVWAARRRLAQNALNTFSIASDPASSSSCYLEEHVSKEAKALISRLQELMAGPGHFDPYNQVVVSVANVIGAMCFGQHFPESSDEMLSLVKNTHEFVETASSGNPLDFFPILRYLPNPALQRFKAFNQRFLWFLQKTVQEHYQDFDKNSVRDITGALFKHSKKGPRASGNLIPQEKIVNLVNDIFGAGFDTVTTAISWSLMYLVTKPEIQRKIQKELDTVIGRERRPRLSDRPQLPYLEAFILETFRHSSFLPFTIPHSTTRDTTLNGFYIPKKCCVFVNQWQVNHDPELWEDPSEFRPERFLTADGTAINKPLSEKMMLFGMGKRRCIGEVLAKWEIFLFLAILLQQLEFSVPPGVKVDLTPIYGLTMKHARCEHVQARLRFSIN", "conditions": "human liver microsomes; cited from earlier work"}, "[5]": {"conditions": "rodent and nonrodent species; cited from earlier work"}, "[6]": {"conditions": "mice; cited from earlier work"}, "[7]": {"system": "patients with advanced/metastatic solid tumors", "conditions": "cited from earlier work"}, "[8]": {"conditions": "6 PDXs with acquired resistance to cetuximab"}, "[9]": {"conditions": "7 PDXs with intrinsic resistance to cetuximab"}}, "note": "pIC50: −log10 of the molar value. Several values for one entry are separate records, joined by “and”; a condition that tells them apart may be missing. Equal values may be shown once."}
{"smiles": "CN1CCN(c2ccc(OC(F)(F)F)c(Nc3ncc4c(n3)-c3c(c(C(N)=O)nn3CCO)CC4)c2)CC1", "note": "[onvansertib, 1-(2-hydroxyethyl)-8-{[5-(4-methylpiperazin-1-yl)-2-(trifluoromethoxy)phenyl]amino}-4,5-dihydro-1H-pyrazolo[4,3-h]quinazoline-3-carboxamide]", "values": [{"measurement": "PDXs with potent anti-tumor activity (tumor regression or tumor stasis)", "setting": "[1]; 20 PDXs, stasis 0≤TVCD18<100, 85%", "value": "17 out of 20"}, {"measurement": "median TGI on Day 18", "setting": "[1]; CetuxR PDXs, IQR 74-124", "value": 108}, {"measurement": "median TGI on Day 18", "setting": "[1]; CetuxS PDXs, IQR 76-103", "value": 102}, {"measurement": "PDXs with tumor regression (TVCD18<0)", "setting": "[1]; all 20 PDXs, Day 18", "value": 11, "unit": "PDXs"}, {"measurement": "PDXs with tumor stasis (0≤TVCD18<100)", "setting": "[1]; all 20 PDXs, Day 18", "value": 6, "unit": "PDXs"}, {"measurement": "models with tumor growth inhibition", "setting": "[2]; [8]", "value": "one"}, {"measurement": "models with tumor stasis or regression", "setting": "[2]; [8]", "value": "4/6"}, {"measurement": "models with tumor growth inhibition", "setting": "[2]; 7 PDXs sensitive to cetuximab", "value": "two"}, {"measurement": "models with tumor stasis or regression", "setting": "[2]; 7 PDXs sensitive to cetuximab, stasis TVC 0-20%", "value": "five and 5/7"}, {"measurement": "models with tumor growth inhibition", "setting": "[2]; [9]", "value": "two"}, {"measurement": "models with tumor stasis or regression", "setting": "[2]; [9]", "value": "5/7"}, {"measurement": "models with potent antitumor activity", "setting": "[2]; 13 PDX models resistant to cetuximab, 69%", "value": "9/13"}, {"measurement": "models with tumor regression", "setting": "[2]; all 20 models", "value": 11, "unit": "models"}, {"measurement": "models with tumor stasis", "setting": "[2]; all 20 models, TVC between 0 and 20%", "value": 3, "unit": "models"}, {"measurement": "pIC50", "setting": "panel of 63 kinases", "value": "< 6.30"}, {"measurement": "Specificity for PLK1 among a panel of 296 kinases", "setting": "[3]", "value": "high specificity"}, {"measurement": "Activity in proliferation assays", "setting": "[4]", "value": "low nanomolar activity"}, {"measurement": "Inhibition of cell proliferation", "setting": "AML cell lines", "value": "nanomolar concentrations"}, {"measurement": "Inhibitory effects against CYP1A2", "setting": "CYP1A2", "value": "No significant inhibitory effects"}, {"measurement": "oral bioavailability", "setting": "[5]", "value": "good oral bioavailability"}, {"measurement": "concentrations relevant to achieve significant anti-tumoral activity", "setting": "[6]", "value": "~1", "unit": "µM"}, {"measurement": "DLTs observed", "setting": "[7]; 36 mg/m^2/day, 4 patients treated", "value": 2, "unit": "DLTs"}, {"measurement": "patients who developed DLTs", "setting": "[7]; 48 mg/m^2/day", "value": "2 of 3"}, {"measurement": "DLTs at the first 3 dose levels", "setting": "[7]; 6, 12, and 24 mg/m^2/day", "value": "No DLTs"}, {"measurement": "best observed treatment response", "setting": "[7]; in vivo", "value": "stable disease (SD)"}, {"measurement": "maximum tolerated dose (MTD)", "setting": "[7]; oral, 5 consecutive days every 3 weeks", "value": 24, "unit": "mg/m^2/day"}, {"measurement": "recovery from hematologic toxicities", "setting": "[7]; reversible toxicities", "value": "≤ 3", "unit": "weeks"}]}
